Experimental findings from patent EP4549424A1, “NEW LITHIUM EXTRACTING AGENT AND LIQUID ORGANIC MIXTURE THEREOF, AND METHOD FOR EXTRACTING LITHIUM BY MEANS OF EXTRACTION” (Beijing Salt Lake Technology Development Company Limited, priority 2022, dated 2024) are described below.

What all share (conditions): organic phase and phase ratio per example
Data set [1] in a line: Liquid-liquid extraction from aqueous lithium-containing solution, ICP detection: sodium.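 Also: sodium measured by inductively coupled plasma optical emission spectrometry in the diluted aqueous phase left after shaking with the organic phase and phase separation.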
Data set [2] can be described thus: Liquid-liquid extraction from aqueous lithium-containing solution, ICP detection: lithium.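 Also: component concentrations in the aqueous phase were measured by inductively coupled plasma optical emission spectrometry after shaking and phase separation.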
Data set [3] can be described thus: Liquid-liquid extraction from aqueous lithium-containing solution, ICP detection: potassium.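 Also: analysis by ICP optical emission spectrometry.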
Setting [4] is: feed B5 (cLi 0.261, cNa 39.98, cK 7.61 g/L, pH 9.49).
Setting [5] is: feed B3 (cLi 0.937, cNa 119.10, cK 43.03 g/L, pH 9.60).
The mark [6] stands for this setting: feed B7 (cLi 0.833, cNa 55.60, cK 5.37 g/L, pH 12.05), 26°C.
Setting [7] is: feed B2 (cLi 0.947, cNa 51.63 g/L, pH 10.77).
Setting [8] is: feed B1 (cLi 0.807, cNa 56.12 g/L, pH 11.48).
The mark [9] stands for this setting: feed B4 (cLi 0.152, cNa 34.20, cK 2.36 g/L, pH 9.14).

Take `O=C(CC(=O)c1ccccc1)c1ccccc1` [Comparative Example 4, 1,3-diphenyl-1,3-propanedione, reference compound]: in data set [1] (setting [4]), the “cNa, remaining aqueous phase R1” value is recorded as 38.12 g/L and the “extraction rate for sodium ions” value came to 4.65%. Further, in data set [2] (setting [4]), the “cLi, remaining aqueous phase R1” value is reported as 0.186 g/L; the “extraction rate for lithium ions” value is given as 28.73%; the “separation factor of Li/Na” value worked out at 8.3. The “cK, remaining aqueous phase R1” value in data set [3] (setting [4]) was 7.60 g/L.
With `O=C(CC(=O)c1ccccc1)c1ccccc1` [Comparative Example 3, 1,3-diphenyl-1,3-propanedione, reference compound], in data set [1] (setting [5]), the “cNa, remaining aqueous phase R1” value was found to be 115.32 g/L and the “extraction rate for sodium ions” value worked out at 3.17%. Further, in data set [2] (setting [5]), the “cLi, remaining aqueous phase R1” value is listed as 0.377 g/L; the “extraction rate for lithium ions” value was 59.76%; the “separation factor of Li/Na” value is 45.3. In data set [3] (setting [5]), the “cK, remaining aqueous phase R1” value is on record as 43.21 g/L.
Consider `O=C(c1ccccc1)c1cc(Cl)ccc1O` [Example 38, 2-hydroxy-5-chlorodibenzophenone], for which, in data set [1] (setting [6]), the “extraction rate for sodium ions” value is given as 8.7%. In data set [2] (setting [6]), the “extraction rate for lithium ions” value is on record as 56.06% and the “separation factor of Li/Na” value was 13.5. Moreover, in data set [3] (setting [6]), the “cK, remaining aqueous phase R1” value came out at 4.99 g/L and the “extraction rate for potassium ions” value worked out at 7.1%.
As for `CCCCCCCCOc1c([N+](=O)[O-])cc(C(=O)c2ccccc2)c(O)c1[N+](=O)[O-]` [Example 16, 4-octyloxy-2,5-dinitro-2-hydroxydibenzophenone], in data set [1] (setting [4]), the “extraction rate for sodium ions” value was determined as 12.7%. In addition, in data set [2] (setting [4]), the “extraction rate for lithium ions” value is on record as 88.5%, the “separation factor of Li/K” value stood at 73.7 and the “separation factor of Li/Na” value is recorded as 52.9. For the same compound, in data set [3] (setting [4]), the “cK, remaining aqueous phase R1” value was 6.89 g/L and the “extraction rate for potassium ions” value was 9.5%.
Regarding “2-hydroxy-5-fluoroacetophenone [Example 40]”, in data set [1] (setting [6]), the “cNa, remaining aqueous phase R1” value is 49.81 g/L and the “extraction rate for sodium ions” value was 10.4%. Further, in data set [2] (setting [6]), the “cLi, remaining aqueous phase R1” value turned out to be 0.417 g/L; the “extraction rate for lithium ions” value is on record as 50%; the “separation factor of Li/Na” value stood at 8.6. Further, in data set [3] (setting [6]), the “cK, remaining aqueous phase R1” value was 4.86 g/L and the “extraction rate for potassium ions” value is 9.5%.
Take `CCCCCCCCOc1ccc(C(=O)c2ccccc2)c(O)c1` [Example 10, 4-octyloxy-2-hydroxydibenzophenone]: the “extraction rate for sodium ions” value in data set [1] (setting [7]) is reported as 4.5%. In addition, in data set [2] (setting [7]), the “extraction rate for lithium ions” value stood at 9.8% and the “separation factor of Li/Na” value is on record as 2.3.
For the compound `CC(=O)c1cc(I)ccc1O` [Example 39, 2-hydroxy-5-iodoacetophenone], in data set [1] (setting [6]), the “extraction rate for sodium ions” value is 10.3%. In data set [2] (setting [6]), the “extraction rate for lithium ions” value is on record as 48% and the “separation factor of Li/Na” value was determined as 8. In addition, the “extraction rate for potassium ions” value in data set [3] (setting [6]) is listed as 8.5%.
As to `CC(=O)CC(=O)c1ccccc1` [Comparative Example 1, benzoyl acetone, reference compound], the “extraction rate for sodium ions” value in data set [1] (setting [5]) is recorded as 5.43%. Further, in data set [2] (setting [5]), the “extraction rate for lithium ions” value came to 53.0% and the “separation factor of Li/Na” value was 19.6. The “cK, remaining aqueous phase R1” value in data set [3] (setting [5]) is 41.79 g/L.
Take `CC(=O)c1c(O)cccc1[N+](=O)[O-]` [Example 36, 2-hydroxy-6-nitrocetophenone]: the “extraction rate for sodium ions” value in data set [1] (setting [6]) amounted to 8.2%. In data set [2] (setting [6]), the “extraction rate for lithium ions” value is recorded as 81.1% and the “separation factor of Li/Na” value was 48. The “extraction rate for potassium ions” value in data set [3] (setting [6]) amounted to 9.3%.
For `CC(=O)c1cc(OCc2ccccc2)ccc1O` [Example 32, 2-hydroxy-5-benzyloxyacetophenone], the “extraction rate for sodium ions” value in data set [1] (setting [6]) was determined as 7.8%. In data set [2] (setting [6]), the “extraction rate for lithium ions” value was determined as 46.6% and the “separation factor of Li/Na” value stood at 10.3. In data set [3] (setting [6]), the “cK, remaining aqueous phase R1” value was 5.01 g/L and the “extraction rate for potassium ions” value was 6.7%.
Consider `CCC(O)C(=O)c1ccccc1` (single isomer, unassigned) [Example 5, 2-hydroxybutyrophenone], for which, in data set [1] (setting [8]), the “extraction rate for sodium ions” value worked out at 6.8%. In addition, in data set [2] (setting [8]), the “extraction rate for lithium ions” value turned out to be 80.5% and the “separation factor of Li/Na” value turned out to be 57.0.
As to `CCC(O)C(=O)c1ccccc1` (single isomer, unassigned) [Example 4, 2-hydroxybutyrophenone], the “extraction rate for sodium ions” value in data set [1] (setting [8]) is 4.8%. In data set [2] (setting [8]), the “extraction rate for lithium ions” value is given as 60.1% and the “separation factor of Li/Na” value worked out at 29.8.
Take `CC(=O)CC(=O)c1ccccc1` [Comparative Example 2, benzoyl acetone, reference compound]: the “extraction rate for sodium ions” value in data set [1] (setting [4]) was found to be 4.45%. For the same compound, in data set [2] (setting [4]), the “extraction rate for lithium ions” value is reported as 23.4% and the “separation factor of Li/Na” value is 6.54. Moreover, the “cK, remaining aqueous phase R1” value in data set [3] (setting [4]) was found to be 7.52 g/L.
For `CCCCCCCCCCCCOc1cc(O)c(C(=O)c2ccccc2)cc1Br` [Example 15, 4-dodecyloxy-5-bromo-2-hydroxydibenzophenone], in data set [1] (setting [9]), the “extraction rate for sodium ions” value is listed as 6.9%. In addition, in data set [2] (setting [9]), the “extraction rate for lithium ions” value is recorded as 64.5%, the “separation factor of Li/K” value came to 5.8 and the “separation factor of Li/Na” value worked out at 24.4. Also, in data set [3] (setting [9]), the “cK, remaining aqueous phase R1” value was 1.80 g/L and the “extraction rate for potassium ions” value is listed as 23.7%.
Consider 2-hydroxydibenzophenone [Example 29], for which the “extraction rate for sodium ions” value in data set [1] (setting [7]) is 2.32%. Moreover, in data set [2] (setting [7]), the “extraction rate for lithium ions” value came to 73.3% and the “separation factor of Li/Na” value was determined as 72.8.
Regarding `CCCCCCCCCCCCCCCCCC(=O)CC(=O)c1ccccc1` [Comparative Example 5, stearoylbenzoylmethane, reference compound], in data set [1] (setting [5]), the “cNa, remaining aqueous phase R1” value is recorded as 113.57 g/L and the “extraction rate for sodium ions” value is recorded as 4.64%. In data set [2] (setting [5]), the “cLi, remaining aqueous phase R1” value came out at 0.577 g/L; the “extraction rate for lithium ions” value was 38.42%; the “separation factor of Li/Na” value amounted to 12.8. In addition, the “cK, remaining aqueous phase R1” value in data set [3] (setting [5]) came out at 41.03 g/L.
Regarding `COc1cccc(O)c1C(C)=O` [Example 31, 2-hydroxy-6-methoxyacetophenone], the “extraction rate for sodium ions” value in data set [1] (setting [6]) is listed as 9.86%. In data set [2] (setting [6]), the “extraction rate for lithium ions” value is reported as 53.42% and the “separation factor of Li/Na” value is listed as 10.5. The “extraction rate for potassium ions” value in data set [3] (setting [6]) is on record as 3.2%.
Consider `CC(=O)c1cccc([N+](=O)[O-])c1O` [Example 34, 2-hydroxy-3-nitrocetophenone], for which the “extraction rate for sodium ions” value in data set [1] (setting [6]) is 8.17%. Besides, in data set [2] (setting [6]), the “extraction rate for lithium ions” value came to 93.28% and the “separation factor of Li/Na” value came out at 156. Besides, the “extraction rate for potassium ions” value in data set [3] (setting [6]) came to 4.5%.
With `CCCCCCOc1ccc(C(=O)c2ccccc2)c(O)c1` [Example 8, 4-hyxyloxy-2-hydroxydibenzophenone], the “extraction rate for sodium ions” value in data set [1] (setting [8]) is on record as 6.5%. Further, in data set [2] (setting [8]), the “extraction rate for lithium ions” value is on record as 67.0% and the “separation factor of Li/Na” value was 29.5.
Regarding `CC(=O)c1ccc([N+](=O)[O-])cc1O` [Example 35, 2-hydroxy-4-nitrocetophenone], the “extraction rate for sodium ions” value in data set [1] (setting [6]) came out at 7.09%. For the same compound, in data set [2] (setting [6]), the “extraction rate for lithium ions” value is reported as 91.72% and the “separation factor of Li/Na” value is 145. For the same compound, in data set [3] (setting [6]), the “extraction rate for potassium ions” value came to 3.0%.
As for `CC1=NN(c2ccccc2)C(=O)C1C(=O)c1ccccc1` (stereo not drawn) [Comparative Example 8, 1-phenyl-3-methyl-4-benzoyl-5-pyrazolone, reference compound], the “extraction rate for sodium ions” value in data set [1] (setting [8]) came to 4.40%. In data set [2] (setting [8]), the “extraction rate for lithium ions” value is recorded as 7.43% and the “separation factor of Li/Na” value is reported as 1.74.
The corresponding values for `CCCCCCCOc1ccc(C(=O)c2ccccc2)c(O)c1` [Example 9, 4-heptoxy-2-hydroxydibenzophenone] are 6.2%, 60.8% and 23.6.
For the compound “4-dodecyloxy-5-bromo-2-hydroxydibenzophenone [Example 14]”, in data set [1] (setting [9]), the “extraction rate for sodium ions” value turned out to be 5.8%. Further, in data set [2] (setting [9]), the “extraction rate for lithium ions” value is reported as 48.7%, the “separation factor of Li/K” value is 2.8 and the “separation factor of Li/Na” value came to 15.3. Besides, the “extraction rate for potassium ions” value in data set [3] (setting [9]) was found to be 25.0%.
For the compound `CC(O)C(=O)c1ccccc1` (stereo not drawn) [Example 3, 2-hydroxypropiophenone], in data set [1] (setting [8]), the “cNa, remaining aqueous phase R1” value was 52.10 g/L and the “extraction rate for sodium ions” value was determined as 7.2%. Further, in data set [2] (setting [8]), the “cLi, remaining aqueous phase R1” value came out at 0.383 g/L; the “extraction rate for lithium ions” value is recorded as 52.5%; the “separation factor of Li/Na” value is given as 14.3.
Take 2-hydroxydibenzophenone [Example 2]: in data set [1] (setting [8]), the “cNa, remaining aqueous phase R1” value was 50.23 g/L and the “extraction rate for sodium ions” value turned out to be 10.5%. In addition, in data set [2] (setting [8]), the “cLi, remaining aqueous phase R1” value turned out to be 0.362 g/L; the “extraction rate for lithium ions” value worked out at 55.1%; the “separation factor of Li/Na” value stood at 10.5.
As for `CC(=O)c1ccc(OCc2ccccc2)cc1O` [Example 6, 4-benzyloxy-2-hydroxyacetophenone], the “extraction rate for sodium ions” value in data set [1] (setting [8]) came to 1.4%. Besides, in data set [2] (setting [8]), the “extraction rate for lithium ions” value stood at 34.7% and the “separation factor of Li/Na” value is 37.7.
For `COc1ccc(C(=O)c2ccc(OC)cc2O)c(O)c1` [Example 28, 2,2'-dihydroxy-4,4'-dimethoxydibenzophenone], in data set [1] (setting [8]), the “extraction rate for sodium ions” value was 3.4%. In data set [2] (setting [8]), the “extraction rate for lithium ions” value is 83.6% and the “separation factor of Li/Na” value worked out at 146.7.
